Measured values as given in PubChem BioAssay AID256 (DTP/NCI, 2004).
Several values for one entry are separate records, joined by “and”; a condition that tells them apart may be missing. Equal values may be shown once. Inconclusive results and toxic doses are left out. Rule for the calls: active = survival T/C of 150% or more; inactive = T/C below 125% in these data.

Test system: CD2F1 mice, L1210 leukemia ip, survival T/C
Assay: NCI In Vivo Anticancer Drug Screen. Data for tumor model L1210 Leukemia (intraperitoneal) in CD2F1 (CDF1) mice
Conditions: endpoint: mean survival time, higher = longer survival
Procedure, shortened: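 Read-out first: treated-group measurement over vehicle-control measurement, expressed as a ratio. Animals bore a transplanted tumor line and were dosed with compound or vehicle.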

[1] = dose: 100.0 mg/kg/injection, schedule: Q01DX001 (ip), vehicle: saline with Tween-80
[2] = dose: 100.0 mg/kg/injection, schedule: Q01DX009 (ip), vehicle: saline with Tween-80
[3] = dose: 100.0 mg/kg/injection, schedule: Q04DX002 (ip), vehicle: saline with Tween-80
[4] = dose: 100.0 mg/kg/injection, schedule: Q04DX003 (ip), vehicle: saline with Tween-80
[5] = dose: 200.0 mg/kg/injection, schedule: Q01DX001 (ip), vehicle: saline with Tween-80
[6] = dose: 200.0 mg/kg/injection, schedule: Q01DX009 (ip), vehicle: saline with Tween-80
[7] = dose: 200.0 mg/kg/injection, schedule: Q04DX002 (ip), vehicle: saline with Tween-80
[8] = dose: 200.0 mg/kg/injection, schedule: Q04DX003 (ip), vehicle: saline with Tween-80
[9] = dose: 400.0 mg/kg/injection, schedule: Q01DX001 (ip), vehicle: saline with Tween-80
[10] = dose: 400.0 mg/kg/injection, schedule: Q01DX009 (ip), vehicle: saline with Tween-80
[11] = dose: 400.0 mg/kg/injection, schedule: Q04DX003 (ip), vehicle: saline with Tween-80
[12] = dose: 12.5 mg/kg/injection, schedule: Q01DX009 (ip), vehicle: saline with Tween-80
[13] = dose: 25.0 mg/kg/injection, schedule: Q01DX009 (ip), vehicle: saline with Tween-80
[14] = dose: 50.0 mg/kg/injection, schedule: Q01DX009 (ip), vehicle: saline with Tween-80
[15] = dose: 50.0 mg/kg/injection, schedule: Q04DX003 (ip), vehicle: saline with Tween-80
[16] = dose: 100.0 mg/kg/injection, schedule: Q01DX001 (ip), vehicle: saline
[17] = dose: 200.0 mg/kg/injection, schedule: Q01DX001 (ip), vehicle: saline

Measured: T/C

[Cl][Pt+2][Cl].[NH-]C1CCCC1.[NH-]C1CCCC1
inactive: dose: 5.0 mg/kg/injection, schedule: Q01DX009 (ip), vehicle: Klucel (hydroxypropylcellulose) (HPC) 103 % of control | dose: 10.0 mg/kg/injection, schedule: Q01DX009 (ip), vehicle: Klucel (hydroxypropylcellulose) (HPC) 104 % of control | dose: 20.0 mg/kg/injection, schedule: Q01DX009 (ip), vehicle: Klucel (hydroxypropylcellulose) (HPC) 116 % of control and 104 % of control and 108 % of control | dose: 20.0 mg/kg/injection, schedule: Q04DX003 (ip), vehicle: Klucel (hydroxypropylcellulose) (HPC) 103 % of control | dose: 40.0 mg/kg/injection, schedule: Q01DX001 (ip), vehicle: Klucel (hydroxypropylcellulose) (HPC) 96 % of control | dose: 40.0 mg/kg/injection, schedule: Q01DX009 (ip), vehicle: Klucel (hydroxypropylcellulose) (HPC) 115 % of control and 104 % of control | dose: 40.0 mg/kg/injection, schedule: Q04DX003 (ip), vehicle: Klucel (hydroxypropylcellulose) (HPC) 103 % of control | dose: 80.0 mg/kg/injection, schedule: Q01DX001 (ip), vehicle: Klucel (hydroxypropylcellulose) (HPC) 105 % of control | dose: 80.0 mg/kg/injection, schedule: Q01DX009 (ip), vehicle: Klucel (hydroxypropylcellulose) (HPC) 121 % of control and 124 % of control | dose: 80.0 mg/kg/injection, schedule: Q04DX003 (ip), vehicle: Klucel (hydroxypropylcellulose) (HPC) 111 % of control | dose: 160.0 mg/kg/injection, schedule: Q01DX001 (ip), vehicle: Klucel (hydroxypropylcellulose) (HPC) 102 % of control | dose: 160.0 mg/kg/injection, schedule: Q01DX009 (ip), vehicle: Klucel (hydroxypropylcellulose) (HPC) 115 % of control | dose: 160.0 mg/kg/injection, schedule: Q04DX003 (ip), vehicle: Klucel (hydroxypropylcellulose) (HPC) 111 % of control | dose: 320.0 mg/kg/injection, schedule: Q01DX001 (ip), vehicle: Klucel (hydroxypropylcellulose) (HPC) 106 % of control | dose: 320.0 mg/kg/injection, schedule: Q01DX009 (ip), vehicle: Klucel (hydroxypropylcellulose) (HPC) 115 % of control and 103 % of control | dose: 320.0 mg/kg/injection, schedule: Q04DX003 (ip), vehicle: Klucel (hydroxypropylcellulose) (HPC) 108 % of control | dose: 640.0 mg/kg/injection, schedule: Q01DX001 (ip), vehicle: Klucel (hydroxypropylcellulose) (HPC) 114 % of control

O=c1[nH]c2cc([N+](=O)[O-])ccc2c2ccccc12
inactive: dose: 50.0 mg/kg/injection, schedule: Q01DX001 (ip), vehicle: carboxymethylcellulose (CMC) 101 % of control | dose: 100.0 mg/kg/injection, schedule: Q01DX001 (ip), vehicle: carboxymethylcellulose (CMC) 98 % of control | dose: 200.0 mg/kg/injection, schedule: Q01DX001 (ip), vehicle: carboxymethylcellulose (CMC) 98 % of control | dose: 400.0 mg/kg/injection, schedule: Q01DX001 (ip), vehicle: carboxymethylcellulose (CMC) 98 % of control

Cc1cc([N+](=O)[O-])ccc1NC(=S)NC(=O)COc1ccccc1
inactive: [1] 95 % of control | [2] 93 % of control and 102 % of control | [3] 95 % of control | [4] 98 % of control | [5] 89 % of control | [6] 93 % of control | [7] 91 % of control | [8] 97 % of control | [9] 87 % of control | [10] 92 % of control | [11] 93 % of control

CCCCOc1ccc(C=Nc2ccc(CC)cc2)cc1
inactive: [4] 101 % of control | [8] 97 % of control | [11] 103 % of control

COc1cc2ccc3c(c2cc1OC)CCc1cn[nH]c1-3
inactive: [3] 103 % of control | [7] 107 % of control | dose: 400.0 mg/kg/injection, schedule: Q04DX002 (ip), vehicle: saline with Tween-80 103 % of control

CCc1nc2cc(C)c(C)cc2[nH]1
inactive: [12] 97 % of control | [13] 100 % of control | dose: 25.0 mg/kg/injection, schedule: Q04DX003 (ip), vehicle: saline with Tween-80 89 % of control | [14] 95 % of control | [15] 89 % of control | [4] 93 % of control

Cc1ccc(S(=O)(=O)OC2C(O)C(CO)OC2n2c(Br)c(C#N)c3c(N)ncnc32)cc1 (stereo unspecified)
inactive: dose: 25.0 mg/kg/injection, schedule: Q01DX005 (ip), vehicle: saline with Tween-80 93 % of control | dose: 50.0 mg/kg/injection, schedule: Q01DX005 (ip), vehicle: saline with Tween-80 102 % of control | dose: 100.0 mg/kg/injection, schedule: Q01DX005 (ip), vehicle: saline with Tween-80 100 % of control | dose: 200.0 mg/kg/injection, schedule: Q01DX005 (ip), vehicle: saline with Tween-80 96 % of control

CNC(=O)/C(=C\c1ccccc1)NC(C)=O
inactive: [2] 103 % of control | [6] 98 % of control | [10] 98 % of control

CCCCCCCCCCCCCCCCC(CCC)C1CCCCC1 (stereo unspecified)
inactive: [1] 92 % of control | [5] 104 % of control | [9] 101 % of control

O=C(Nc1ccccc1)Nc1ccccc1F
inactive: [2] 95 % of control | [6] 113 % of control | [10] 98 % of control

C[n+]1cnc2c(ccn2C2OC(CO)C(O)C2O)c1N (stereo unspecified)
inactive: dose: 50.0 mg/kg/injection, schedule: Q01DX001 (ip), vehicle: saline 102 % of control | [16] 100 % of control | [17] 102 % of control | dose: 400.0 mg/kg/injection, schedule: Q01DX001 (ip), vehicle: saline 100 % of control

CC1(C)N=C(N)N=C(N)N1c1cccc(/C=C(\C#N)c2ccccc2)c1
inactive: dose: 100.0 mg/kg/injection, schedule: Q04DX002 (ip), vehicle: Klucel (hydroxypropylcellulose) (HPC) 98 % of control | dose: 200.0 mg/kg/injection, schedule: Q04DX002 (ip), vehicle: Klucel (hydroxypropylcellulose) (HPC) 95 % of control

O=C(Nc1ccccc1C(=O)O)c1cc([N+](=O)[O-])cc([N+](=O)[O-])c1
inactive: [12] 95 % of control and 97 % of control | [13] 101 % of control and 103 % of control | [14] 100 % of control and 101 % of control | [2] 95 % of control and 97 % of control | [6] 96 % of control

COC(=O)c1cc(Cl)c(C(=O)OC)cc1Cl
inactive: dose: 100.0 mg/kg/injection, schedule: Q01DX009 (ip), vehicle: Klucel (hydroxypropylcellulose) (HPC) 92 % of control | dose: 200.0 mg/kg/injection, schedule: Q01DX009 (ip), vehicle: Klucel (hydroxypropylcellulose) (HPC) 97 % of control | dose: 400.0 mg/kg/injection, schedule: Q01DX009 (ip), vehicle: Klucel (hydroxypropylcellulose) (HPC) 102 % of control

Nc1cc(OCc2ccccc2)c(N)c(N)n1
inactive: dose: 1.56 mg/kg/injection, schedule: Q01DX005 (ip), vehicle: water 98 % of control | dose: 3.13 mg/kg/injection, schedule: Q01DX005 (ip), vehicle: water 97 % of control | dose: 6.25 mg/kg/injection, schedule: Q01DX005 (ip), vehicle: water 98 % of control | dose: 12.5 mg/kg/injection, schedule: Q01DX005 (ip), vehicle: water 98 % of control | dose: 25.0 mg/kg/injection, schedule: Q01DX005 (ip), vehicle: water 97 % of control

NCC1CC2C=CC1C2 (stereo unspecified)
inactive: [16] 100 % of control | [17] 93 % of control

CCCCCC#CC(=O)OC
inactive: [14] 95 % of control | [2] 104 % of control | [4] 94 % of control | [6] 103 % of control | [8] 96 % of control

O=C1CCCCC1CNCc1ccccc1 (stereo unspecified)
inactive: dose: 75.0 mg/kg/injection, schedule: Q01DX001 (ip), vehicle: saline 102 % of control | dose: 150.0 mg/kg/injection, schedule: Q01DX001 (ip), vehicle: saline 93 % of control

O=C(NO)c1ccccc1
inactive: dose: 25.0 mg/kg/injection, schedule: Q01DX009 (ip), vehicle: saline 96 % of control | dose: 50.0 mg/kg/injection, schedule: Q01DX009 (ip), vehicle: saline 94 % of control | [1] 110 % of control | dose: 100.0 mg/kg/injection, schedule: Q01DX009 (ip), vehicle: saline sonified 103 % of control | dose: 100.0 mg/kg/injection, schedule: Q01DX009 (ip), vehicle: saline 98 % of control and 109 % of control | [4] 98 % of control | [5] 103 % of control | dose: 200.0 mg/kg/injection, schedule: Q01DX009 (ip), vehicle: saline sonified 115 % of control | dose: 200.0 mg/kg/injection, schedule: Q01DX009 (ip), vehicle: saline 121 % of control and 102 % of control | [8] 96 % of control | [9] 117 % of control | [11] 116 % of control

Cc1ccc(C)c(NC(=O)NC2CCCCC2)c1
inactive: [1] 98 % of control | [5] 101 % of control | [9] 101 % of control

O=C(C[n+]1ccccc1/C=N/O)c1ccccc1
inactive: [15] 91 % of control
